Source: patent publication US20260085034A1, “N-(BENZHYDRYL)CYCLOALKYLCARBOXAMIDE DERIVATIVES AS INHIBITORS OF GLYCOGEN SYNTHASE 1 (GYS1) AND METHODS OF USE THEREOF” (Maze Therapeutics, Inc., priority 2022, published 2026)

Test system: glycogen synthesis in HeLa cells (hGYS1)
Experiment: GYS1 cell based assay (glycogen digestion, Glucose-glo)
Conditions: Homo sapiens, 24 h incubation, 20 mM glucose, geometric mean of at least 2 runs, read-out: Cellular IC50
From the text: The GYS1 cell based assay is a bioluminescent assay that quantifies the glucose resulting from glycogen digestion; the quantified glucose is an indirect measure of GYS1 glycogen synthesis. Newly synthesized glycogen is digested using Glucoamylase; the resulting glucose is quantified by using the Glucose-glo assay kit from Promega. Glucose-glo works by coupling glucose oxidation and NADH production with a bioluminescent system that is activated with NADH. Glucose is oxidized by Glucose dehydrogenase and the reaction reduces NAD+ to NADH; NADH activates Reductase which reduces a pro-luciferin Reductase Substrate to luciferin. Luciferin is detected in a luciferase reaction using Ultra-Glo rLuciferase and ATP, and the luminesce produced is proportional to the glucose in the sample. The luminescence is measured as a single point read in a plate reader.
Compounds that inhibit the hGYS1 enzyme and, subsequently, the glycogen synthesis in cells, were tested using assay ready plates (white, clear bottom 384 well plates) in a final DMSO reaction volume of 1% DMSO. Compounds in the assay ready plates were mixed with media with no additives, except for 20 mM glucose prior to cell addition. HeLa cells were starved in media with no additives, except for 1× Glutamax for 24 h. Starved HeLa cells were plated, in a 1:1 ratio to the media in the assay ready plate and incubated for 24 h at 37° C. and 5% CO2. Cells were washed in 1×PBS buffer and lysed in lysis buffer containing 50% 1×PBS and 25% 0.3 N HCl of the final volume in the well or reaction volume; cells were incubated with lysis buffer for 10 minutes and quenched with the remaining 25% of the reaction volume that consisted of 450 mM Tris pH 8.0. Lysates were mixed in a 1:1 ratio with Glucoamylase in 100 mM Sodium Acetate buffer, pH 5.3; the mixture was incubated for 1 h at 37° C. The digested lysate was mixed in a 1:1 ratio with Glucose-glo detection mixture as per vendor recommendations (Luciferase detection buffer, Reductase, Reductase substrate, Glucose dehydrogenase, and NAD) in read-out plates (solid white 384-well plates) and incubated for 1 h at RT. The plates were read using a plate reader with luminescence capabilities. Each compound concentration Relative Luminescence Unit (RLU) was averaged and normalized to the average RLU of the positive and negative controls to obtain a percentage inhibition. The normalized data vs. concentration was plotted; to determine the half-maximal concentration (IC50), the Levenberg-Marquardt algorithm was used to fit a Hill equation to the dose response data.
The results are shown in Table 4 below, which reports the IC50 of each compound. Unless otherwise specified, IC50 values are reported as the geometric mean of at least 2 assay runs on separate days. As shown in the table below, the compounds of the present invention are potent inhibitors of human GYS1. […] Each run represents the average of a technical replicate, where each compound was assayed twice in the same plate.

- IC50: 3.28 µM
SMILES: CC(C)c1ccc([C@@H](NC(=O)[C@H]2C[C@@H]2F)c2ccn[nH]2)cc1F (single isomer, unassigned) [compound 11]
